The target of this assay is T1, Histone deacetylase 8 (Homo sapiens, UniProt Q9BY41).
T1 sequence (Q9BY41 whole entry): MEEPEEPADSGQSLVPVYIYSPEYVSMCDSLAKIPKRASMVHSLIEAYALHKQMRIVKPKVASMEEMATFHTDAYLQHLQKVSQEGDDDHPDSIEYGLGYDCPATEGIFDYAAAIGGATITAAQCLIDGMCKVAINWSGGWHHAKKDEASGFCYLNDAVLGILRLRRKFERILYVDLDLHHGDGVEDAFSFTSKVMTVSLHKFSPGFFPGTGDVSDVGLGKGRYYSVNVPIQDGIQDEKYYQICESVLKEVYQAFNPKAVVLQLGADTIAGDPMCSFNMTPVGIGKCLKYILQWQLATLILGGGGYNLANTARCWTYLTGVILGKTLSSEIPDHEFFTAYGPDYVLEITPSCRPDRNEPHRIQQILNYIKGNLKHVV
Put plainly: Inhibition of Homo sapiens (human) HDAC8.

The term IC50 denotes the point on the concentration scale where inhibition reaches its midpoint. Low readings indicate greater potency, high ones weaker potency.

In turn, `Nc1ccc(Cl)cc1NC(=O)c1ccc(CNC(=O)OCc2cccnc2)cc1` had an IC50 of 7700 nM.
With `Nc1cc(Cl)ccc1NC(=O)c1ccc(CNC(=O)OCc2cccnc2)cc1` the figure was 40000 nM; with `O=C(CCCCCCCCc1ccc2ccccc2c1)NO`, 25 nM.
With `CC(=O)Nc1ccccc1NC(=O)c1ccc(CNC(=O)OCc2cccnc2)cc1` the figure was above 100000 nM.
With `Cc1cccc(NC(=O)c2ccc(CNC(=O)OCc3cccnc3)cc2)c1N` the figure was above 100000 nM.
Compound `CC(C)c1cc(C(C)C)c(C(C)C)cc1CS(=O)(=O)Nc1ccc(/C=C\C(=O)NO)cc1` showed an IC50 of 600 nM.
With `Cc1ccc(NC(=O)c2ccc(CNC(=O)OCc3cccnc3)cc2)c(N)c1` the figure was above 100000 nM; with `O=C(CCCCCC(=O)c1ccccc1)NO`, 1500 nM.
With `COc1ccc(CS(=O)(=O)Nc2ccc(/C=C\C(=O)NO)cc2)cc1` the figure was 60 nM; with `COc1ccc(NC(=O)c2ccc(CNC(=O)OCc3cccnc3)cc2)c(N)c1`, 44000 nM; with `Nc1cccc(NC(=O)c2ccc(CNC(=O)OCc3cccnc3)cc2)c1`, above 100000 nM.
With `Cc1ccc(S(=O)(=O)Nc2ccc(/C=C/C(=O)NO)cc2)cc1` the figure was 300 nM; with `O=C(CCc1ccc(NS(=O)(=O)c2ccccc2)cc1)NO`, 100 nM.
`O=C(CCCCCCCC(=O)c1ccc(N2CCCCC2)cc1)NO`: the IC50 turned out to be 9.5 nM.
With `O=C(CCCCCCC/C(=N\O)c1ccc2ccccc2c1)NO` the figure was 8.5 nM.
With `CC(C)(C)c1ccc(CS(=O)(=O)Nc2ccc(/C=C\C(=O)NO)cc2)cc1` the figure was 100 nM; with `O=C(CCc1ccc(-c2ccc(O)cc2)cc1)NO`, 1700 nM; with `CC(CCCCCC(=O)c1ccc2ccccc2c1)C(=O)NOCCCCC(=O)NO` (stereo unspecified), 600 nM.
As for `O=C(/C=C/C=C/c1ccc(-c2ccccc2)cc1)NO`, the figure is above 5000 nM.
The compound `Nc1ccc(F)cc1NC(=O)c1ccc(CNC(=O)OCc2cccnc2)cc1` had an IC50 of 6000 nM.
Consider `O=C(CCCCCCC(=O)c1ccc2ccccc2c1)NO`, for which the IC50 was determined as 35 nM.
Compound `C/C(=C\Cc1ccc(NS(=O)(=O)c2ccccc2)cc1)CC(=O)NO` gave an IC50 of 2000 nM.
With `O=C(CCCCCCCC(O)c1ccc2ccccc2c1)NO` (stereo unspecified) the figure was 35 nM; with `C=C(CCCCCCCC(=O)NO)c1ccc2ccccc2c1`, 8 nM; with `O=C(CCCCCCCN1C(=O)c2ccccc2C1=O)NO`, 71.4 nM.
With `O=C(NCc1ccc(C(=O)Nc2ccccc2)cc1)OCc1cccnc1` the figure was above 100000 nM.
As for `CC(=O)c1cc(/C=C/C(=O)NO)n(C)c1`, the figure is 11300 nM; as for `Nc1ccc(NC(=O)c2ccc(CNC(=O)OCc3cccnc3)cc2)cc1`, above 100000 nM; as for `O=C(CCCCCCCC(=O)c1ccc(N2CCN(c3ccccc3)CC2)cc1)NO`, 4.5 nM.
`O=C(CCCCCC/C=C/c1ccc2ccccc2c1)NO` displayed an IC50 of 6 nM.
With `O=C(Cc1ccc(NS(=O)(=O)c2ccccc2)cc1)NO` the figure was 900 nM; with `O=C(CCCCCCCCC(=O)c1ccccc1)NO`, 135 nM.
With `Cn1cc(C=O)cc1CCC(=O)NO` the figure was 52600 nM.
As for `COc1ccc(C(=O)CCCCCCCC(=O)NO)cc1`, the figure is 15 nM; as for `O=C(/C=C/c1ccc(NS(=O)(=O)c2ccc(Cl)c(Cl)c2)cc1)NO`, 100 nM.
Take `O=C(CCCCCCCC(=O)c1cccnc1)NO`: inhibition was half-maximal at 153 nM (IC50).
With `O=C(CCCCCCC(=O)c1ccccc1)NO` the figure was 500 nM; with `O=C(/C=C/c1ccc(Cc2ccc(CO)cc2)cc1)NO`, 20 nM; with `O=C(CCCCCCCC(=O)c1ccc(Br)cc1)NO`, 45 nM.
Take `O=C(CCCCCCCC(=O)c1ccccc1)NO`: half-maximal inhibition (IC50) required 65 nM.
As for `Cn1cc(C(=O)Cl)cc1/C=C/C(=O)NO`, the figure is 9650 nM.
As for `O=C(NO)c1ccc(CCCc2ccccc2)cc1`, the figure is 1000 nM.
In turn, `O=C(CCCCCCCC(=O)c1ccc(-c2ccccc2)cc1)NO` gave a concentration for half-maximal inhibition (IC50) of 5 nM.
As for `O=C(NCc1ccc(C(=O)Nc2ccccc2O)cc1)OCc1cccnc1`, the figure is 2200 nM.
Turning to `COc1ccc(CS(=O)(=O)Nc2ccc(/C=C\C(=O)NO)cc2)cc1OC`, the IC50 was 90 nM.
`O=C(CCCCCCCC(=O)c1ccc(-c2ccc(Br)cc2)cc1)NO` came in with an IC50 of 2 nM.
As for `COc1ccc(C(=O)CCCCCCC(=O)NO)cc1`, half-maximal inhibition (IC50) was put at 450 nM.
As for `O=C(CCCCCCC/C(=N\O)c1ccc(-c2ccccc2)cc1)NO`, the figure is 4 nM; as for `Cc1ccc(N)c(NC(=O)c2ccc(CNC(=O)OCc3cccnc3)cc2)c1`, 2800 nM.
With `COc1ccc(N)c(NC(=O)c2ccc(CNC(=O)OCc3cccnc3)cc2)c1` the figure was 4600 nM; with `COc1ccccc1C(=O)CCCCCCCC(=O)NO`, 95 nM; with `Cn1cc(C=O)cc1/C=C/C(=O)NO`, 12300 nM.
The compound `O=C(CCCCCCCC(=O)c1ccc(C(F)(F)F)cc1)NO` gave an IC50 of 45 nM.
As for `O=C(/C=C/c1cccc(-c2ccc(O)cc2)c1)NO`, 320 nM corresponded to half-maximal inhibition (IC50).
With `O=C(/C=C/c1ccc(NS(=O)(=O)c2ccc(Cl)cc2Cl)cc1)NO` the figure was 300 nM; with `O=C(/C=C/c1ccc(Cc2ccc(O)c(Cl)c2)cc1)NO`, 460 nM.

The record behind these values is ChEMBL document CHEMBL3045730, “An efficient anticancer histone deacetylase inhibitor and its analogues for human HDAC8” (Med Chem Res, 2012).
